The values that follow are results of earlier work, collected in patent US6461590B2, “Stabilized gas-supersaturated suspensions and methods for their delivery” (Wayne State University, priority 1996, dated 2002).

Turning to `OCC(O)CO` [Glycerin], the oxygen solubility is listed as 0.008 cc O2/g/atm.
